Patent publication US8999984B2, “Macrophage migration inhibitory factor antagonists and methods of using same” (University of Louisville Research Foundation, Inc., priority 2006, dated 2015)

Assays:
[1] = system: HIF-1α; assay: HIF-1α stabilization in MIF-containing and MIF-deficient mouse embryonic fibroblasts; format: cell-based; conditions: FIG. 9C
Procedure: FIGS. 9A-9C are pictures of immunoblots showing MIF tautomerase inhibitors block HIF-1 stabilization in an MIF-specific manner. […] After 5 hours, nuclear lysates were isolated and subjected to immunoblotting for HIF-1. In FIGS. 9A and 9B, MIA-PaCa pancreatic adenocarcinoma cells were used. In FIG. 9C, MIF+/+ and MIF−/− mouse embryonic fibroblasts were evaluated.
Lastly, in order to verify that the effect of #16 on HIF-1α inhibition is through its inhibitory effects on MIF, MIF-containing cells and MIF-deficient cells were tested for inhibitory activity.

[2] = molecular target: T1, MIF/sCD74 (Homo sapiens, UniProt P14174); assay: MIF/MIF receptor (CD74) capture assay; format: binding; conditions: 0.1 μM antagonist against 0.2 μM biotinylated MIF (maximal inhibition possible 50%); FIG. 14B
T1 construct: made in house; host or cells: E. coli BL21 (DE3)pLysS (sCD74)
T1 sequence (P14174 2-115 limits assumed): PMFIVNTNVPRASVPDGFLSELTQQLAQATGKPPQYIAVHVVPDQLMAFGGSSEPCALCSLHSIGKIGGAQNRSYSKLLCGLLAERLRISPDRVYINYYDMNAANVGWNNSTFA
Procedure: FIGS. 14A-14C are a schematic (FIG. 14C) of a MIF/MIF receptor capture assay and graphs of data collected from the assay (FIGS. 14A and 14B) that provides a tool for structure-function studies of MIF muteins and candidate inhibitors. […] FIG. 14A is a graph of data from the assay where CD74 coated plates were pre-incubated with the indicated concentrations of native MIF (MIF), denatured MIF or P1G MIF followed by the addition of 0.2 μM biotin-hrMIF. FIG. 14B is a graph of data from the assay where 1.0 μM of denatured MIF (dMIF), native MIF (MIF) or anti-CD74 were pre-incubated with soluble CD74 for 30 mins before adding 0.2 μM biotin-hrMIF. For inhibitors, 0.1 μM ISO-1 or 4-iodo-6-phenyl pyrimidine (Cmp16) were pre-incubated for 30 mins with 0.2 μM biotin-hrMIF before adding mixture to CD74 coated plate. In both FIGS. 14A and 14B, plates were developed 2 hours later by incubating Streptavidin-AP followed by PnPP and measurement at OD405.
As previously noted, the ability of small molecule antagonists to block MIFs biological functions requires the blockade of MIF binding to its cell surface receptor (Meyer-Siegler et al., 2006). […]
96 well plates can be coated with 60 μl/well of purified, soluble CD74 (CD74^73-232) at 0.1 mg/ml and incubated at 4° C. overnight. […] After washing, 60 μl/well of PNPP (Sigma) is added and allowed to develop in the dark until being read at 405 nm.

SMILES: Ic1cc(-c2ccccc2)ncn1 [compound #16, 4-iodo-6-phenylpyrimidine]
- HIF-1α stabilization block in MIF-containing fibroblasts ([1]; MIF^+/− murine embryonic fibroblasts): potently blocks
- HIF-1α stabilization in MIF-deficient fibroblasts ([1]; MIF^−/− fibroblasts): unaffected
- inhibition of MIF receptor (CD74) binding [2]: 50%
